Experimental data as given in ChEMBL document CHEMBL1130916, “Design and synthesis of conformationally-constrained MMP inhibitors” (Bioorg Med Chem Lett, 1998).

How the values were obtained:
Stromelysin-1 = Stromelysin-1 (Homo sapiens, UniProt P08254); experiment: Inhibition of matrix metalloprotease-3 (MMP-3)
Interstitial collagenase = molecular target: T1, Interstitial collagenase (Homo sapiens, UniProt P03956); experiment: Inhibition of matrix metalloprotease-1 (MMP-1)
T1 sequence (P03956 whole entry): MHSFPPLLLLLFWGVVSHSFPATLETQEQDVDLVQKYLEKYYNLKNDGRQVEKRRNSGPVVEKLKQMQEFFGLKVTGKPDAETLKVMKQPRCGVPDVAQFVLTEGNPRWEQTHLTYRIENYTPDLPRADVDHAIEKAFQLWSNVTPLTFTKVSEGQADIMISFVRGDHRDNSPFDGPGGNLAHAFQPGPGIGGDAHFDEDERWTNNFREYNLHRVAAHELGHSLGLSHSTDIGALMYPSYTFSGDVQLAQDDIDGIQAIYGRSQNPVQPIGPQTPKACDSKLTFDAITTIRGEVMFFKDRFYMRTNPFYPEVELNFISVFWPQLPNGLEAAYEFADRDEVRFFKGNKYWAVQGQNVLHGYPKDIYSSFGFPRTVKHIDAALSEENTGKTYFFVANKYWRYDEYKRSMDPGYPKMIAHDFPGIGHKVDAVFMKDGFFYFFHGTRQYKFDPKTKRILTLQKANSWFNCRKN

Chain of Stromelysin-1 (P08254 whole entry): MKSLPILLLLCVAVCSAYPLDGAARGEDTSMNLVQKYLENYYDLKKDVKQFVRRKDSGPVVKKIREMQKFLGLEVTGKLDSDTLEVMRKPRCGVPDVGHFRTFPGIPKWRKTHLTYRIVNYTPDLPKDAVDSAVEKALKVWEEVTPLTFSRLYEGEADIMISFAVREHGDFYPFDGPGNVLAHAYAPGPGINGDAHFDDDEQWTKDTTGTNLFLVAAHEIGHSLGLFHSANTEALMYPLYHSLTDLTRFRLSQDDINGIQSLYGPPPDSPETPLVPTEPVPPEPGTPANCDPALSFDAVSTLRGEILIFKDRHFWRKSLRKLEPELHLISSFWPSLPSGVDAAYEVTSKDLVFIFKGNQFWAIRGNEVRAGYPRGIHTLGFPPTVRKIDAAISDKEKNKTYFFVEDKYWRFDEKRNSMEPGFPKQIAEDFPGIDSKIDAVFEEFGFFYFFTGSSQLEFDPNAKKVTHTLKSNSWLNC

Row | IC50 (Stromelysin-1) [nM] | IC50 (Interstitial collagenase) [nM] | SMILES
1 | 215 | 49 | COC(=O)CN1CCCC[C@H](NC(=O)[C@H](CC(C)C)[C@@H](C)C(=O)NO)C1=O
2 | 824 | 129 | CCCCC[C@H](CC(=O)NO)C(=O)N[C@H]1CCCCN(CC(=O)OC)C1=O
3 | 2900 | 225 | COC(=O)CN1CCCC[C@H](NC(=O)[C@@H](CC(=O)NO)CC(C)C)C1=O
4 | 518 | 117 | CC(C)C[C@H](CC(=O)NO)C(=O)N[C@H]1CCCCN(CCOc2ccccc2)C1=O
5 | 11700 | 3900 | CC(C)C[C@H](CC(=O)NO)C(=O)N[C@H]1CCCCNC1=O
6 | 1420 | 140 | CC(C)C[C@H](CC(=O)NO)C(=O)N[C@H]1CCCCN(CCCOc2ccccc2)C1=O
7 | – | 51 | COCCN1CCCC[C@H](NC(=O)[C@H](CC(C)C)[C@@H](CCCO)C(=O)NO)C1=O

Second part, the compound before the results:

Row | SMILES | IC50 (Stromelysin-1) [nM] | IC50 (Interstitial collagenase) [nM]
8 | CCCCCCCC[C@H](CC(=O)NO)C(=O)N[C@H]1CCCCN(CC(=O)OC)C1=O | 1040 | 11
9 | CCC[C@@H](C(=O)NO)[C@@H](CC(C)C)C(=O)N[C@H]1CCCCN(CCOC)C1=O | 94 | 83
10 | CCCCCCCC[C@@H](C(=O)N[C@H]1CCCCN(CC(=O)OC)C1=O)[C@@H](C)C(=O)NO | 21 | 57
11 | CCC[C@@H](C(=O)NO)[C@@H](CC(C)C)C(=O)N[C@H]1CCCCN(CC(=O)OC)C1=O | 58 | 96
12 | CCCCCCCC[C@H](CC(=O)NO)C(=O)N[C@H]1CCCCN(CCOC)C1=O | 250 | 1890
13 | CCCCCCCC[C@@H](C(=O)N[C@H]1CCCCN(CCOC)C1=O)[C@@H](C)C(=O)NO | 30 | 112
14 | CCCCCCCCC(C(=O)N[C@H]1CCCCN(CCOC)C1=O)C(C)C(=O)NO (single isomer, unassigned) | 108 | 4360
